Reference: PubChem BioAssay AID256 (DTP/NCI, 2004)
“And” between values parts separate entries of the source, which are not always exact repeats. Identical values can stand only once. Toxic doses and inconclusive results are not listed. Rule for the calls: active = survival T/C of 150% or more; inactive = T/C below 125% in these data.

Test system: CD2F1 mice, L1210 leukemia ip, survival T/C
Assay: NCI In Vivo Anticancer Drug Screen. Data for tumor model L1210 Leukemia (intraperitoneal) in CD2F1 (CDF1) mice
Conditions: higher = longer survival
Outline: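 Tumor-bearing mice (transplanted tumor) were split into treated and vehicle control groups, and the measured endpoint of each treated group was divided by that of its vehicle controls.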

[1] = endpoint: mean survival time, dose: 25.0 mg/kg/injection, schedule: Q01DX001 (ip), vehicle: saline with Tween-80
[2] = endpoint: mean survival time, dose: 25.0 mg/kg/injection, schedule: Q04DX003 (ip), vehicle: saline with Tween-80
[3] = endpoint: mean survival time, dose: 50.0 mg/kg/injection, schedule: Q01DX009 (ip), vehicle: saline with Tween-80
[4] = endpoint: mean survival time, dose: 50.0 mg/kg/injection, schedule: Q04DX003 (ip), vehicle: saline with Tween-80
[5] = endpoint: mean survival time, dose: 100.0 mg/kg/injection, schedule: Q01DX001 (ip), vehicle: saline with Tween-80
[6] = endpoint: mean survival time, dose: 100.0 mg/kg/injection, schedule: Q01DX009 (ip), vehicle: saline with Tween-80
[7] = endpoint: mean survival time, dose: 100.0 mg/kg/injection, schedule: Q04DX003 (ip), vehicle: saline with Tween-80
[8] = endpoint: mean survival time, dose: 200.0 mg/kg/injection, schedule: Q01DX001 (ip), vehicle: saline with Tween-80
[9] = endpoint: mean survival time, dose: 200.0 mg/kg/injection, schedule: Q01DX009 (ip), vehicle: saline with Tween-80
[10] = endpoint: mean survival time, dose: 400.0 mg/kg/injection, schedule: Q01DX009 (ip), vehicle: saline with Tween-80
[11] = endpoint: mean survival time, dose: 200.0 mg/kg/injection, schedule: Q04DX003 (ip), vehicle: saline with Tween-80
[12] = endpoint: mean survival time, dose: 75.0 mg/kg/injection, schedule: Q01DX001 (ip), vehicle: saline
[13] = endpoint: mean survival time, dose: 150.0 mg/kg/injection, schedule: Q01DX001 (ip), vehicle: saline
[14] = endpoint: mean survival time, dose: 300.0 mg/kg/injection, schedule: Q01DX001 (ip), vehicle: saline

Measured: T/C

Cc1ccc(NC2=NCCS2)c(C)c1
inactive: [1] 106 % of control | endpoint: mean survival time, dose: 25.0 mg/kg/injection, schedule: Q01DX009 (ip), vehicle: saline with Tween-80 89 % of control and 95 % of control | endpoint: mean survival time, dose: 25.0 mg/kg/injection, schedule: Q04DX002 (ip), vehicle: saline with Tween-80 104 % of control and 106 % of control | [2] 101 % of control | endpoint: mean survival time, dose: 50.0 mg/kg/injection, schedule: Q01DX001 (ip), vehicle: saline with Tween-80 106 % of control | [3] 97 % of control and 103 % of control | endpoint: mean survival time, dose: 50.0 mg/kg/injection, schedule: Q04DX002 (ip), vehicle: saline with Tween-80 95 % of control and 110 % of control | [4] 98 % of control | [5] 102 % of control | [6] 103 % of control | [7] 96 % of control

O=C(c1ccccc1)C(O)(CC(c1ccccc1)[P+](c1ccccc1)(c1ccccc1)c1ccccc1)c1ccccc1 (stereo not drawn)
inactive: endpoint: mean survival time, dose: 6.25 mg/kg/injection, schedule: Q01DX001 (ip), vehicle: saline with Tween-80 103 % of control | endpoint: mean survival time, dose: 12.5 mg/kg/injection, schedule: Q01DX001 (ip), vehicle: saline with Tween-80 96 % of control | [1] 100 % of control

Nc1nc2c(ncn2C2OC(CO)C(O)C2O)c(=O)[nH]1.Nc1nc2c(ncn2C2OC(CO)C(O)C2O)c(=O)[nH]1.[NH2-].[NH2-].[Pt+2] (stereo not drawn)
inactive: endpoint: mean survival time, dose: 6.25 mg/kg/injection, schedule: Q01DX009 (ip), vehicle: water 102 % of control and 106 % of control | endpoint: mean survival time, dose: 12.5 mg/kg/injection, schedule: Q01DX009 (ip), vehicle: water 106 % of control and 112 % of control | endpoint: mean survival time, dose: 25.0 mg/kg/injection, schedule: Q01DX009 (ip), vehicle: water 113 % of control and 124 % of control | endpoint: mean survival time, dose: 50.0 mg/kg/injection, schedule: Q01DX009 (ip), vehicle: water 113 % of control | endpoint: mean survival time, dose: 100.0 mg/kg/injection, schedule: Q01DX009 (ip), vehicle: water 123 % of control

O=C(O)Cc1c(Cl)n(-c2ccccc2)c2ccccc12
inactive: [2] 96 % of control | [4] 102 % of control | [7] 104 % of control

NC(=O)c1ccc[n+](CCc2c[nH]c3ccccc23)c1
inactive: endpoint: mean survival time, dose: 18.75 mg/kg/injection, schedule: Q01DX009 (ip), vehicle: saline with Tween-80 101 % of control | endpoint: mean survival time, dose: 37.5 mg/kg/injection, schedule: Q01DX009 (ip), vehicle: saline with Tween-80 92 % of control | endpoint: mean survival time, dose: 75.0 mg/kg/injection, schedule: Q01DX009 (ip), vehicle: saline with Tween-80 103 % of control | endpoint: mean survival time, dose: 75.0 mg/kg/injection, schedule: Q04DX003 (ip), vehicle: saline with Tween-80 88 % of control

O=c1[nH]cnc2c1cnn2CN1CCOCC1
inactive: endpoint: median survival time, dose: 25.0 mg/kg/injection, schedule: Q01DX009 (ip), vehicle: Klucel (hydroxypropylcellulose) (HPC) 106 % of control | endpoint: median survival time, dose: 50.0 mg/kg/injection, schedule: Q01DX009 (ip), vehicle: Klucel (hydroxypropylcellulose) (HPC) 106 % of control | endpoint: median survival time, dose: 100.0 mg/kg/injection, schedule: Q01DX009 (ip), vehicle: Klucel (hydroxypropylcellulose) (HPC) 110 % of control | endpoint: median survival time, dose: 200.0 mg/kg/injection, schedule: Q01DX009 (ip), vehicle: Klucel (hydroxypropylcellulose) (HPC) 114 % of control

N#CCCN(CC(O)c1cc2ccccc2c2ccccc12)C1CCCCC1 (stereo not drawn)
inactive: [5] 91 % of control | [6] 106 % of control | [8] 90 % of control | [9] 97 % of control | endpoint: mean survival time, dose: 400.0 mg/kg/injection, schedule: Q01DX001 (ip), vehicle: saline with Tween-80 92 % of control | [10] 97 % of control

CN(C)/N=C/c1cccc(CC(O)(C(F)(F)F)C(F)(F)F)n1
inactive: [3] 94 % of control | [5] 105 % of control | [6] 96 % of control | [8] 100 % of control | [9] 97 % of control

COc1cc2c(cc1OC)C(Cc1ccccc1NC(=O)c1ccc(C(=O)Nc3ccccc3CC3c4cc(OC)c(OC)cc4CCN3C)cc1)N(C)CC2 (stereo not drawn)
inactive: endpoint: mean survival time, dose: 100.0 mg/kg/injection, schedule: Q01DX001 (ip), vehicle: saline 97 % of control | endpoint: mean survival time, dose: 200.0 mg/kg/injection, schedule: Q01DX001 (ip), vehicle: saline 94 % of control | endpoint: mean survival time, dose: 400.0 mg/kg/injection, schedule: Q01DX001 (ip), vehicle: saline 91 % of control

CC1(C)/C(=C/c2ccccc2)C(=O)c2ccccc21
inactive: [6] 100 % of control | [7] 102 % of control | [9] 100 % of control | [11] 92 % of control | [10] 94 % of control | endpoint: mean survival time, dose: 400.0 mg/kg/injection, schedule: Q04DX003 (ip), vehicle: saline with Tween-80 102 % of control

CCOC(=O)Nc1ccc2c(c1)Cc1cc(N=Cc3ccc4c(c3)OCO4)ccc1-2
inactive: endpoint: mean survival time, dose: 100.0 mg/kg/injection, schedule: Q01DX001 (ip), vehicle: carboxymethylcellulose (CMC) 105 % of control | endpoint: mean survival time, dose: 200.0 mg/kg/injection, schedule: Q01DX001 (ip), vehicle: carboxymethylcellulose (CMC) 100 % of control | endpoint: mean survival time, dose: 400.0 mg/kg/injection, schedule: Q01DX001 (ip), vehicle: carboxymethylcellulose (CMC) 97 % of control

ClC(Cl)(Cl)c1nc2nccnc2[nH]1
inactive: endpoint: mean survival time, dose: 25.0 mg/kg/injection, schedule: Q01DX009 (ip), vehicle: saline sonified 100 % of control | endpoint: mean survival time, dose: 50.0 mg/kg/injection, schedule: Q01DX009 (ip), vehicle: saline sonified 104 % of control | endpoint: mean survival time, dose: 100.0 mg/kg/injection, schedule: Q01DX009 (ip), vehicle: saline sonified 94 % of control

O=c1[nH]cnc2c1CN(c1ccc(Cl)cc1)C2
inactive: [12] 101 % of control | [13] 90 % of control | [14] 93 % of control

COc1ccc(Sc2cccc3c2C(=O)c2c(Sc4ccc(OC)cc4)cccc2C3=O)cc1
inactive: [6] 99 % of control | [9] 94 % of control | [10] 89 % of control

OC1CCCCCCCCCCC12OCCO2 (stereo not drawn)
inactive: endpoint: mean survival time, dose: 100.0 mg/kg/injection, schedule: Q04DX002 (ip), vehicle: other 98 % of control | endpoint: mean survival time, dose: 200.0 mg/kg/injection, schedule: Q04DX002 (ip), vehicle: other 113 % of control | endpoint: mean survival time, dose: 400.0 mg/kg/injection, schedule: Q04DX002 (ip), vehicle: other 95 % of control

S=c1nc[nH]c2c1ncn2CN1CCCCC1
inactive: [9] 116 % of control

CC(C)C1(C(C)C)OCCO1
inactive: [3] 98 % of control | [6] 93 % of control | [7] 97 % of control | [9] 95 % of control | [11] 88 % of control

C=CCC(C(=O)OC)(C(=O)OC)c1ccc(OC)c(OC)c1
inactive: [12] 100 % of control | [13] 96 % of control | [14] 98 % of control

O=[N+]([O-])c1ccc(N/N=C(\CI)c2ccccc2)c([N+](=O)[O-])c1
inactive: endpoint: mean survival time, dose: 100.0 mg/kg/injection, schedule: Q04DX003 (ip), vehicle: saline sonified 97 % of control | endpoint: mean survival time, dose: 200.0 mg/kg/injection, schedule: Q04DX003 (ip), vehicle: saline sonified 109 % of control | endpoint: mean survival time, dose: 400.0 mg/kg/injection, schedule: Q04DX003 (ip), vehicle: saline sonified 108 % of control

CCCCCCCCCCCCCCCC(=O)Nc1ccccc1CC
inactive: endpoint: mean survival time, dose: 100.0 mg/kg/injection, schedule: Q04DX002 (ip), vehicle: saline with Tween-80 91 % of control | endpoint: mean survival time, dose: 200.0 mg/kg/injection, schedule: Q04DX002 (ip), vehicle: saline with Tween-80 95 % of control | endpoint: mean survival time, dose: 400.0 mg/kg/injection, schedule: Q04DX002 (ip), vehicle: saline with Tween-80 103 % of control

Cc1ccc(C2OC23CC(C)(C)c2ccccc2C3=O)cc1 (stereo not drawn)
inactive: endpoint: mean survival time, dose: 100.0 mg/kg/injection, schedule: Q01DX009 (ip), vehicle: other 100 % of control | endpoint: mean survival time, dose: 200.0 mg/kg/injection, schedule: Q01DX009 (ip), vehicle: other 96 % of control | endpoint: mean survival time, dose: 400.0 mg/kg/injection, schedule: Q01DX009 (ip), vehicle: other 107 % of control
